# “And” between values parts separate entries of the source, which are not always exact repeats. Equal values may be shown once. “Also recorded” adds a separate entry of the source.
# How the values were obtained:
# E. coli (ATCC 8739) = test: MIC test in LB broth comparing AgNO3 and complex 106; assay type: cell-based; parameters: key: +=growth; −=no growth
# [1] = system: P. aeruginosa (ATCC 9027); test: as above; assay type: cell-based; parameters: key: +=growth; −=no growth
# S. aureus (ATCC 6538) = test: as above; assay type: cell-based; parameters: key: +=growth; −=no growth
# [2] = system: E. coli, P. aeruginosa, S. aureus; test: MIC test in aqueous LB broth, summary of Table 5; assay type: cell-based
# solubility = conditions: 37: bromide salt; 20a, 20b: bromide salts
# [3] = stability (air, light, water, chloride, storage)
# Escherichia coli = assay type: cell-based
# Protocol: (§1) In this test, a filter paper disc of 6 mm diameter was soaked with 20 μL of a silver compound of known concentration, and placed over a lawn of an organism in the agar plate. The diameter of the area in which growth of the organism is inhibited by the test solution was measured after an over night incubation as a measure of the relative antimicrobial activity of the silver compounds. The test organisms were Escherichia coli, Staphylococcus aureus, and Pseudomonas aeruginosa.
# Pseudomonas aeruginosa = assay type: cell-based
# Protocol: as §1
# Staphylococcus aureus = assay type: cell-based
# Protocol: as §1
# [4] = system: Escherichia coli, Staphylococcus aureus, and Pseudomonas aeruginosa; test: agar plates overlay method, summary of Table 2; assay type: cell-based
# Protocol: as §1, with “The usefulness of the compounds represented by Formulas 103 and 55 as antimicrobial agents was evaluated. In” for “In”
# [5] = system: Escherichia coli, Staphylococcus aureus, and Pseudomonas aeruginosa; conditions: supernatants, less silver chloride
# [6] = system: bladder carcinoma-derived T24 epithelial cell line (ATCC HTB-4); test: In vitro toxicity, propidium iodide flow cytometry; assay type: cell-based
# Protocol: A prerequisite for a topical biocide is that it confers acceptable toxicity to the tissue(s) of interest. In vitro toxicity of the compound represented by Formula 202 has been studied using the bladder carcinoma-derived T24 epithelial cell line (ATCC HTB-4). T24 cells were grown in RPMI 1640 medium available from Life Technologies (Carlsbad, Calif.) supplemented with 10% fetal bovine serum available from Sigma (St. Louis, Mo.), seeded into 24-well plates, and grown to confluence over 48 hours. Cells were washed with sterile phosphate buffered saline (PBS) and fresh warmed medium was added, either alone or containing the compound represented by Formula 202 (added to the medium at the start of the experiment to minimize premature liberation of Ag^+ from the compound represented by Formula 202) at concentrations between 5 and 50 μg/mL. After incubation for 1 to 2 hours, cells were released by treatment with 0.05% trypsin-0.02% EDTA, suspended in sorting buffer, stained with propidium iodide, and subjected to flow cytometry on a FACS Calibur instrument available from Becton Dickinson (Piscataway, N.J.).
# physchem = conditions: water
# panel of E. coli = test: MIC for a panel of E. coli (UTI strains), 96-well plate; conditions: Escherichia coli, 16 h
# [7] = LD50 in rats, preliminary studies; conditions: rat, in vivo, imidazolium cation portion
# Description: The imidazolium salt 1,3,9-trimethyl-7-(2,3-dihyroxypropyl)xanthinium iodide represented by Formula 201 is obtained by reacting 7-(2,3-dihydroxypropyl)theophylline (Formula 200) with methyl iodide in dimethylformamide. The imidazolium salt represented by Formula 201 reacts with silver acetate in methanol to yield the N-heterocyclic carbene silver(I) acetate complex (Formula 202), which is a white solid in 34% yield (structure confirmed by X-ray crystallography). The compound represented by Formula 202 is water soluble (Ksp=82 mg/mL) and is stable for at least 7 days in water by NMR. As the compound represented by Formula 202 decomposes to release Ag^+ thereby regenerating the cationic portion of the compound of Formula 201. The imidazolium cation portion of the compound represented by Formula 201 has an LD50 in rats of >2.0 g/kg in preliminary studies.
# rats = test: Toxicity studies with rats, clearance by mass spectroscopy of the urine; assay type: in vivo
# [8] = system: S. aureus, P. aeruginosa, and E. coli; test: filter disk test and standard MIC technique; assay type: cell-based
# [9] = Day 1, 1DF: AgNO3 1731.18, 106 1675.74 μg/mL
# [10] = Day 1, 2DF: AgNO3 865.59, 106 837.87 μg/mL
# [11] = Day 1, 3DF: AgNO3 432.79, 106 418.94 μg/mL
# [12] = Day 1, 4DF: AgNO3 216.40, 106 209.47 μg/mL
# [13] = Day 1, undiluted: AgNO3 0.50 wt/V % (3462.35 μg/mL), 106 1.38 wt/V % (3341.48 μg/mL)
# [14] = Day 2, 1DF: AgNO3 1731.18, 106 1675.74 μg/mL
# [15] = Day 2, 2DF: AgNO3 865.59, 106 837.87 μg/mL
# [16] = Day 2, 3DF: AgNO3 432.79, 106 418.94 μg/mL
# [17] = Day 2, 4DF: AgNO3 216.40, 106 209.47 μg/mL
# [18] = Day 2, undiluted: AgNO3 0.50 wt/V % (3462.35 μg/mL), 106 1.38 wt/V % (3341.48 μg/mL)
smiles,measurement,setting,value
OC1(O)CN2C=CN3Cc4cccc(n4)CN4C=CN(C1)[CH]4[Ag+][CH]1N4C=CN1CC(O)(O)CN1C=CN(Cc5cccc(n5)C4)[CH]1[Ag][CH]32 [Complex 106],growth / no growth,E. coli (ATCC 8739); [9],−
same,growth / no growth,E. coli (ATCC 8739); [10],−
same,growth / no growth,E. coli (ATCC 8739); [11],−
same,growth / no growth,E. coli (ATCC 8739); [12],−
same,growth / no growth,E. coli (ATCC 8739); [13],−
same,growth / no growth,E. coli (ATCC 8739); [14],−
same,growth / no growth,E. coli (ATCC 8739); [15],−
same,growth / no growth,E. coli (ATCC 8739); [16],+
same,growth / no growth,E. coli (ATCC 8739); [17],+
same,growth / no growth,E. coli (ATCC 8739); [18],−
same,growth / no growth,[1]; [9],−
same,growth / no growth,[1]; [10],−
same,growth / no growth,[1]; [11],−
same,growth / no growth,[1]; [12],−
same,growth / no growth,[1]; [13],−
same,growth / no growth,[1]; [14],−
same,growth / no growth,[1]; [15],−
same,growth / no growth,[1]; [16],+
same,growth / no growth,[1]; [17],+
same,growth / no growth,[1]; [18],−
same,growth / no growth,S. aureus (ATCC 6538); [9],−
same,growth / no growth,S. aureus (ATCC 6538); [10],−
same,growth / no growth,S. aureus (ATCC 6538); [11],−
same,growth / no growth,S. aureus (ATCC 6538); [12],−
same,growth / no growth,S. aureus (ATCC 6538); [13],−
same,growth / no growth,S. aureus (ATCC 6538); [14],−
same,growth / no growth,S. aureus (ATCC 6538); [15],−
same,growth / no growth,S. aureus (ATCC 6538); [16],+
same,growth / no growth,S. aureus (ATCC 6538); [17],+
same,growth / no growth,S. aureus (ATCC 6538); [18],−
same,"antimicrobial activity of the aqueous form, fold less effective than 0.5% AgNO3",[2]; about the same amount of silver,2 fold
same,MIC,"[2]; after 48 hrs of incubation, read-out: MIC concentration",838 µg/mL
same,solubility in water / aqueous media,solubility,sparingly soluble in water
same,stability in air and light,[3],air and light stable
same,stability in water,"[3]; 37: bromide salt, 20a, 20b: bromide salts",quick decomposition
F[P-](F)(F)(F)(F)F.F[P-](F)(F)(F)(F)F.OCCn1cc[n+]2[c]1[Ag-][c]1n(CCO)cc[n+]1Cc1cccc(n1)C[n+]1ccn(CCO)[c]1[Ag-][c]1n(CCO)cc[n+]1Cc1cccc(n1)C2 [Compound 105],Diameter of Inhibited Area,Escherichia coli,10 mm and 11.58 mm
same,Diameter of Inhibited Area,Pseudomonas aeruginosa,12 mm and 10.25 mm
same,Diameter of Inhibited Area,Staphylococcus aureus,9 mm and 10.67 mm
same,antimicrobial properties (Table 2 summary),[4],comparable to silver nitrate
same,antimicrobial activity compared with silver nitrate (Table 3 summary),[5],better antimicrobial activity than silver nitrate
same,solubility in water / aqueous media,solubility,is not; also recorded: soluble in aqueous media
CC(=O)[O][Ag][CH]1N(C)c2c(c(=O)n(C)c(=O)n2C)N1CC(O)CO (centres unmarked) [Formula 202],loss of viability,[6]; 1 h of treatment at 5 μg/mL,~5%
same,loss of viability,[6]; 2 hours of treatment at 5 μg/mL,approximately 11%
same,solubility,physchem,82 mg/mL
same,shelf life,[3]; room temperature,several months
same,stable in solid form,[3]; solid form,a couple months
same,stable in water by NMR,[3]; water,at least 7 days
same,MIC,panel of E. coli,2 to 4 µg/mL
CN1CN(CC(O)CO)c2c1n(C)c(=O)n(C)c2=O (centres unmarked) [Formula 201],LD50,[7],> 2000 mg/kg
OCC[n+]1ccn(Cc2cccc(Cn3cc[n+](CCO)c3)n2)c1.[Br-].[Br-] [Formula 19a],toxicity,rats,low toxicity
same,clearance through the kidneys,rats; mass spectroscopy of the urine,clears within two days
CC(=O)[O][Ag][CH]1N(C)c2c(n(C)c(=O)n(C)c2=O)N1C (centres unmarked) [Formula 100],antimicrobial activity,[8],effective antimicrobial activity
same,stability in air and light,[3],air stable

# From US8648205B2, “Metal complexes of N-heterocyclic carbenes” (The University of Akron, priority 2003, dated 2014)
